Measurements as given in the supplement of paper PMC10307832.

Experiments:
Assay in all cases: relative viability (nuclei count vs DMSO), 5 days (fraction); higher = more cells survive
LCLC-103H = system: LCLC-103H
Procedure, shortened: (§1)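 Each reported value is a median over duplicate plates. It expresses relative viability: treated-well nuclei count divided by vehicle-well nuclei count. Lung cancer cell lines in 1536-well plates were dosed by pin tool a day after seeding, alone with one drug or with a fixed anchor-drug dose plus five library-drug doses (not always all listed) in √10 steps, and nuclei were counted after 5 days.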

UMC-11 = system: UMC-11
Procedure, shortened: as §1

HCC-15 = system: HCC-15
Procedure, shortened: as §1

NCI-H522 = system: NCI-H522
Procedure, shortened: as §1

A549 = system: A549
Procedure, shortened: as §1

NCI-H1623 = system: NCI-H1623
Procedure, shortened: as §1

Calu-6 = system: Calu-6
Procedure, shortened: as §1

NCI-H1703 = system: NCI-H1703
Procedure, shortened: as §1

NCI-H1299 = system: NCI-H1299
Procedure, shortened: as §1

IA-LM = system: IA-LM
Procedure, shortened: as §1

EBC-1 = system: EBC-1
Procedure, shortened: as §1

SMILES: CC1(C)CCC(c2ccc(Cl)cc2)=C(CN2CCN(c3ccc(C(=O)NS(=O)(=O)c4ccc(N[C@H](CCN5CCOCC5)CSc5ccccc5)c(S(=O)(=O)C(F)(F)F)c4)cc3)CC2)C1 [Navitoclax] + N=C(N)NC(=N)NCCc1ccccc1 [Phenformin] (partner 250 µM)
- relative viability (LCLC-103H; first compound 0.005 µM): 0.342
- relative viability (LCLC-103H; first compound 0.01581 µM): 0.359
- relative viability (LCLC-103H; first compound 0.05 µM): 0.314
- relative viability (LCLC-103H; first compound 0.1581 µM): 0.322
- relative viability (LCLC-103H; first compound 0.5 µM): 0.338
- relative viability (UMC-11; first compound 0.005 µM): 0.303
- relative viability (UMC-11; first compound 0.01581 µM): 0.323
- relative viability (UMC-11; first compound 0.05 µM): 0.35
- relative viability (UMC-11; first compound 0.1581 µM): 0.242
- relative viability (UMC-11; first compound 0.5 µM): 0.273
- relative viability (HCC-15; first compound 0.005 µM): 0.453
- relative viability (HCC-15; first compound 0.01581 µM): 0.488
- relative viability (HCC-15; first compound 0.05 µM): 0.406
- relative viability (HCC-15; first compound 0.1581 µM): 0.483
- relative viability (HCC-15; first compound 0.5 µM): 0.422
- relative viability (NCI-H522; first compound 0.005 µM): 0.633
- relative viability (NCI-H522; first compound 0.01581 µM): 0.603
- relative viability (NCI-H522; first compound 0.05 µM): 0.701
- relative viability (NCI-H522; first compound 0.1581 µM): 0.695
- relative viability (NCI-H522; first compound 0.5 µM): 0.699
- relative viability (A549; first compound 0.005 µM): 0.146
- relative viability (A549; first compound 0.01581 µM): 0.19
- relative viability (A549; first compound 0.05 µM): 0.144
- relative viability (A549; first compound 0.1581 µM): 0.157
- relative viability (A549; first compound 0.5 µM): 0.146
- relative viability (NCI-H1623; first compound 0.005 µM): 0.624
- relative viability (NCI-H1623; first compound 0.01581 µM): 0.671
- relative viability (NCI-H1623; first compound 0.05 µM): 0.58
- relative viability (NCI-H1623; first compound 0.1581 µM): 0.567
- relative viability (NCI-H1623; first compound 0.5 µM): 0.555

SMILES: Oc1nc(-c2ccc(C(F)(F)F)cc2)nc2c1CSCC2 [XAV939] + COc1cc2c(Oc3ccc(NC(=O)C4(C(=O)Nc5ccc(F)cc5)CC4)cc3F)ccnc2cc1OCCCN1CCOCC1 [Foretinib] (partner 0.25 µM)
- relative viability (LCLC-103H; first compound 0.08 µM): 0.853
- relative viability (LCLC-103H; first compound 0.253 µM): 0.643
- relative viability (LCLC-103H; first compound 0.8 µM): 0.748
- relative viability (LCLC-103H; first compound 2.53 µM): 0.659
- relative viability (Calu-6; first compound 0.08 µM): 0.88
- relative viability (Calu-6; first compound 0.253 µM): 0.704
- relative viability (Calu-6; first compound 0.8 µM): 0.776
- relative viability (Calu-6; first compound 2.53 µM): 0.819
- relative viability (UMC-11; first compound 0.08 µM): 1.13
- relative viability (UMC-11; first compound 0.253 µM): 0.873
- relative viability (UMC-11; first compound 0.8 µM): 0.978
- relative viability (UMC-11; first compound 2.53 µM): 0.8
- relative viability (NCI-H1703; first compound 0.08 µM): 0.348
- relative viability (NCI-H1703; first compound 0.253 µM): 0.377
- relative viability (NCI-H1703; first compound 0.8 µM): 0.416
- relative viability (NCI-H1703; first compound 2.53 µM): 0.374
- relative viability (HCC-15; first compound 0.08 µM): 1.2
- relative viability (HCC-15; first compound 0.253 µM): 0.984
- relative viability (HCC-15; first compound 0.8 µM): 1.05
- relative viability (HCC-15; first compound 2.53 µM): 0.988
- relative viability (NCI-H1299; first compound 0.08 µM): 1.13
- relative viability (NCI-H1299; first compound 0.253 µM): 1.11
- relative viability (NCI-H1299; first compound 0.8 µM): 1.07
- relative viability (NCI-H1299; first compound 2.53 µM): 1.08
- relative viability (IA-LM; first compound 0.08 µM): 1.29
- relative viability (IA-LM; first compound 0.253 µM): 0.968
- relative viability (IA-LM; first compound 0.8 µM): 1.09
- relative viability (IA-LM; first compound 2.53 µM): 0.729
- relative viability (A549; first compound 0.08 µM): 0.992
- relative viability (A549; first compound 0.8 µM): 0.883
- relative viability (A549; first compound 2.53 µM): 0.9
- relative viability (EBC-1; first compound 0.08 µM): 0.108
- relative viability (EBC-1; first compound 0.253 µM): 0.113
- relative viability (EBC-1; first compound 0.8 µM): 0.106
- relative viability (EBC-1; first compound 2.53 µM): 0.0948
- relative viability (NCI-H1623; first compound 0.08 µM): 0.826
- relative viability (NCI-H1623; first compound 0.253 µM): 0.75
- relative viability (NCI-H1623; first compound 0.8 µM): 0.703
- relative viability (NCI-H1623; first compound 2.53 µM): 0.677

SMILES: Oc1nc(-c2ccc(C(F)(F)F)cc2)nc2c1CSCC2 [XAV939] + N=C(N)NC(=N)NCCc1ccccc1 [Phenformin] (partner 250 µM)
- relative viability (LCLC-103H; first compound 0.08 µM): 0.369
- relative viability (LCLC-103H; first compound 0.253 µM): 0.29
- relative viability (LCLC-103H; first compound 0.8 µM): 0.304
- relative viability (LCLC-103H; first compound 2.53 µM): 0.315
- relative viability (UMC-11; first compound 0.08 µM): 0.328
- relative viability (UMC-11; first compound 0.253 µM): 0.32
- relative viability (UMC-11; first compound 0.8 µM): 0.248
- relative viability (UMC-11; first compound 2.53 µM): 0.201
- relative viability (HCC-15; first compound 0.08 µM): 0.634
- relative viability (HCC-15; first compound 0.253 µM): 0.457
- relative viability (HCC-15; first compound 0.8 µM): 0.481
- relative viability (HCC-15; first compound 2.53 µM): 0.481
- relative viability (NCI-H522; first compound 0.08 µM): 0.599
- relative viability (NCI-H522; first compound 0.253 µM): 0.707
- relative viability (NCI-H522; first compound 0.8 µM): 0.594
- relative viability (NCI-H522; first compound 2.53 µM): 0.599
- relative viability (A549; first compound 0.08 µM): 0.136
- relative viability (A549; first compound 0.253 µM): 0.218
- relative viability (A549; first compound 0.8 µM): 0.129
- relative viability (A549; first compound 2.53 µM): 0.175
- relative viability (NCI-H1623; first compound 0.08 µM): 0.578
- relative viability (NCI-H1623; first compound 0.253 µM): 0.555
- relative viability (NCI-H1623; first compound 0.8 µM): 0.59
- relative viability (NCI-H1623; first compound 2.53 µM): 0.591
